From paper PMC6325233, “A Novel Actin Binding Drug with In Vivo Efficacy” (Antimicrobial Agents and Chemotherapy, 2018)
“Also recorded” adds a separate entry of the source.

What was measured:
[1] = test system: Trichophyton mentagrophytes 10207; assay: MIC susceptibility testing (itraconazole-resistant strain); assay type: cell-based; conditions: CLSI M38-A2; 96 hours
Protocol: (§1) Occidiofungin was purified from a liquid culture of Burkholderia contaminans MS14 as previously described ([21]). MIC susceptibility testing was performed according to the CLSI M27-A3 and M38-A2 standards for the susceptibility testing of yeasts and filamentous fungi, respectively. S. cerevisiae deletion mutants were obtained from the commercially available BY4741 deletion library (Thermo Scientific).

[2] = test system: Trichophyton rubrum 11199; assay: MIC susceptibility testing (terbinafine-resistant strain); assay type: cell-based; conditions: CLSI M38-A2; 96 hours
Protocol: as §1

[3] = test system: Candida albicans 23512; assay: MIC susceptibility testing (fluconazole-resistant strain); assay type: cell-based; design: key to MIC, 50% inhibition: -: indicates absence of isolates with 50% inhibition endpoint; conditions: CLSI M27-A3
Protocol: as §1

[4] = test system: Candida glabrata 27243; assay: as above; assay type: cell-based; design: key to MIC, 50% inhibition: -: indicates absence of isolates with 50% inhibition endpoint; conditions: CLSI M27-A3
Protocol: as §1

[5] = test system: rabbit skeletal muscle filamentous actin; assay: In vitro actin filament microscopy; assay type: biochemical; conditions: 24 μg actin with 4 or 8 μg native occidiofungin (8 μg alkyne-OF), 15 min
Protocol: Purified rabbit skeletal muscle filamentous actin (catalog number AKF99) and G-actin (catalog number AKL95) were purchased from Cytoskeleton, Inc. Actin was reconstituted in Milli-Q water to achieve a stock concentration of 0.4 mg/ml in a buffer that consisted of 5 mM Tris-HCl (pH 8.0), 0.2 mM CaCl2, 0.2 mM ATP, 2 mM MgCl2, and 5% (wt/vol) sucrose as directed by the supplier. This solution was stored at −80°C in 50-μl aliquots until use. Immediately before use, each aliquot was thawed by placing it in a 37°C water bath for 5 min and then at room temperature. For all studies, 24 μg of F- or G-actin was used with 8 μg alkyne-OF. F-actin filaments were reacted with native occidiofungin for 15 min at room temperature at molar ratios of 1:10 (24 μg actin to 8 μg native occidiofungin) and 1:5 (24 μg actin to 4 μg native occidiofungin). As per the manufacturer’s instructions, Acti-stain 670 phalloidin (Cytoskeleton, Inc.) was used as a control in an in vitro actin filament binding study. Actin filaments treated with DMSO (solvent blank negative control) were stained and observed for comparison. The actin filaments were visualized on an Olympus FV1000 confocal microscope. Pulldown assays were performed using alkyne-OF with azide-biotin (Click-iT protein reaction buffer kit; Thermo Fisher Scientific), according to the manufacturer’s instructions. […]

[6] = test system: C. albicans; assay: Murine model of vulvovaginal candidiasis, efficacy; assay type: in vivo, BALB/c mice infected with C. albicans
Protocol: (§2) The murine model of vulvovaginal candidiasis has been reported ([59]). A variation of this method was used. Three groups of six mice were used to evaluate two concentrations of occidiofungin (100 μg and 50 μg) and vehicle control (0.3% Noble agar). Briefly, 6- to 8-week-old BALB/c mice were treated subcutaneously with 200 ng per mouse of β-estradiol 17-valerate 3 days prior to inoculation with C. albicans (day −3). A subcutaneous dose of estradiol was administered every 3 days (day 0 [D0] and D3) until the end of the experiment to induce pseudoestrus. Intravaginal inoculations of approximately 20 μl of 2.5 × 10^6 CFU/ml of C. albicans were performed on D0 of the VVC study. On the same day of inoculation (D0), another subcutaneous injection of estradiol was made. A lyophilized powder of occidiofungin containing either 100 μg or 50 μg of occidiofungin was suspended in 20 μl of warm 0.3% Noble agar before the intravaginal inoculations. Drug treatments were performed on D2, D3, and D4 of the study. On day 5 (D5), the vaginal lumen was lavaged with 100 μl of sterile PBS with a 200-µl pipette tip. Serial dilutions and total CFU per vaginal lavage were determined by plating on YPD plates containing 50 μg/ml of chloramphenicol. Body weights, signs of vaginal irritation such as swelling or bleeding, and clinical signs of discomfort (stereotypical stretching behavior) were monitored. Statistical analyses (t tests) were performed to compare the control group to the treated groups and to compare differences between treated groups. All the analyses were 2 sided, with a P value of <0.05 considered statistically significant.

[7] = Murine model of vulvovaginal candidiasis, tolerability; assay type: in vivo, BALB/c mice
Protocol: as §2

[8] = test system: clinically relevant fungi; assay: Spectrum of antifungal activity (summary); assay type: cell-based
Protocol: as §1

[9] = intravaginal 100 and 50 µg, once per day for 3 days

For occidiofungin, the “MIC, 80% inhibition” value [1] was 1 µg/mL, the “MIC, 100% inhibition” value [1] was 2 µg/mL and the “MIC, 80% inhibition” value [2] was 1 µg/mL. For the same substance, the “MIC, 100% inhibition” value [2] was 2 µg/mL, the “MIC, 50% inhibition” value ([3]; 24 hours) was “-” and the “MIC, 100% inhibition” value ([3]; 24 hours) was 1 µg/mL. For the same substance, the “MIC, 50% inhibition” value ([3]; 48 hours) was “-”, the “MIC, 100% inhibition” value ([3]; 48 hours) was 2 µg/mL and the “MIC, 50% inhibition” value ([4]; 24 hours) was 2 µg/mL. The “MIC, 100% inhibition” value ([4]; 24 hours) was 4 µg/mL, the “MIC, 50% inhibition” value ([4]; 48 hours) was “-” and the “MIC, 100% inhibition” value ([4]; 48 hours) was 4 µg/mL. For the same substance, the “effect on F-actin morphology” value [5] was “the morphology of F-actin changed in the presence of occidiofungin in a dose-dependent manner”, the “effect on F-actin morphology” value ([5]; listed as native occidiofungin) was “a high degree of aggregation of the filaments” and the “difference between the two treated groups” value ([6]; 100 vs 50 µg, P = 0.33) was “no statistically significant difference between the two treated groups”. For the same substance, the “reduction in fungal load” value ([6]; intravaginal 100 and 50 µg in 0.3% Noble agar, once per day for 3 days, six mice per group, vs vehicle P < 0.001) was 2 -log, the “efficacious concentration lower than azole-based treatment” value ([6]; vs azole-based treatment methods) was 10 -fold and the “behavioral changes (sluggishness, stretching, reluctance to consume food)” value [7, 9] was “No behavioral changes”. For the same substance, the “vaginal bleeding or swelling” value [7, 9] was “no vaginal bleeding or swelling was observed”, the signs of toxicity ([7]; treatment of murine vulvovaginal candidiasis) was “without any signs of toxicity” and the “activity against filamentous fungi” value ([8]; Aspergillus, Mucor, Fusarium, Rhizopus, and azole- and terbinafine-resistant Trichophyton) was “active”. For the same substance, the “activity against fluconazole- and caspofungin-resistant Candida” value ([8]; Candida albicans, Candida glabrata, Candida parapsilosis resistant to fluconazole and caspofungin) was “sensitive to occidiofungin”, the “activity against caspofungin-resistant strains” value ([8]; Candida parapsilosis and C. neoformans resistant to caspofungin) was “susceptible to treatment with occidiofungin” and the “activity against C. auris” value ([8]; strains of C. auris) was “sensitive to occidiofungin at submicromolar concentrations”. For the same substance, the “activity against filamentous and nonfilamentous fungi” value ([8]; summary of Table S1) was “low micromolar inhibitory activity; also recorded: activity against filamentous and nonfilamentous fungi at submicromolar concentrations” and the “spectrum of activities vs other clinically available antifungals” value ([8]; summary of Table S1) was “broader spectrum of activities”.
